Data on 12 molecules can be found in ChEMBL document CHEMBL1201862, “PubChem BioAssay data set” (2004).

What all share (experiment): NCI tumour cell line growth inhibition, 48 h
Test [1] concerns SW-620.
The subject of test [2] is SNB-75.
Test [3] concerns OVCAR-5.
Test [4] concerns HCC 2998.
Test [5] has as its system LOX IMVI.
Test [6] relates to PC-3.
Test [7] deals with EKVX.
The subject of test [8] is A549.
In test [9] the test system is HL-60.
Test [10] concerns SNB-19.
For test [11], the system named is HCT-116.
Test [12] concerns RPMI-8226.
Test [13] concerns MDA-MB-435.
Test [14] concerns 786-0.
In test [15] the test system is Malme-3M.
For test [16], the system named is SK-OV-3.
Test [17] deals with HOP-92.
Test [18] deals with OVCAR-8.
Test [19] deals with NCI-H522.
In test [20] the test system is RXF 393.

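In this assay, cells in 96-well plates receive the compound at five concentrations for 48 hours. Endpoints are linearly interpolated between the surrounding concentrations. GI50: concentration for 50% inhibition of growth.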 Activity calls are given as the source filed them. Cut-off read from the data, not from the text of the source: active = GI50 up to about 1.1 µM and inactive = higher. Some results are limits rather than exact numbers.

`COC(=O)/C=C/c1cnc2c(c1)oc(=O)n2CCc1ccccn1`: the GI50 in test [1] was 92 µM (inactive); in [2], > 100 µM (inactive); in test [3], > 100 µM (inactive); in [4], > 100 µM (inactive); in test [5] it was > 100 µM (inactive); in test [6] it was 90.2 µM (inactive). In addition, the GI50 is > 100 µM (inactive) in test [7]; > 100 µM (inactive) in test [8]; 1.35 µM (inactive) in test [9]; > 100 µM (inactive) in test [10]; > 100 µM (inactive) in test [11]; > 100 µM (inactive) in test [12]. Also, the GI50 in test [13] is 20.8 µM (inactive); in test [14] it was > 100 µM (inactive); in test [15], > 100 µM (inactive); in [16], > 100 µM (inactive).

Regarding `CO[C@@]12C[C@@H](C)C3=CCC(C)=C3CC1=C(C)C(=O)O2`, the GI50 in test [17] is > 100 µM (inactive); in [1], > 100 µM (inactive); in test [2] it was 63.4 µM (inactive); in test [3], > 100 µM (inactive); in test [18], > 100 µM (inactive); in [4], > 100 µM (inactive). In addition, the GI50 in test [5] was > 100 µM (inactive); in [6] it was 85.7 µM (inactive); in test [7] it was > 100 µM (inactive); in test [9] it was 50.8 µM (inactive); in test [10], > 100 µM (inactive); in test [11], > 100 µM (inactive). For the same molecule, the GI50 in test [12] is 57.8 µM (inactive); in [13] it was > 100 µM (inactive); in test [14] it was > 100 µM (inactive); in test [15], > 100 µM (inactive); in test [16] it was 68.7 µM (inactive).

`CC(=O)On1c(-c2ccccc2-c2nc3ccccc3n2OC(C)=O)nc2ccccc21`: the GI50 in test [1] was 34.4 µM (inactive); in test [2] it was 35.2 µM (inactive); in [3], > 100 µM (inactive); in test [18], 36.5 µM (inactive); in test [4], 33.4 µM (inactive); in [5], 18.5 µM (inactive). The GI50 was 4.43 µM (inactive) in test [6]; > 10 µM (inactive) in [7]; 41.3 µM (inactive) in test [8]; 14.7 µM (inactive) in test [9]; 60.5 µM (inactive) in test [10]; 25 µM (inactive) in test [11]. Also, the GI50 in test [12] was 7.82 µM (inactive); in [13], 16.2 µM (inactive); in test [14], 46.6 µM (inactive); in test [15], 15.1 µM (inactive); in test [16], 55.1 µM (inactive); in [19] it was 18.5 µM (inactive).

For the molecule `CC(=O)C1C(=O)C(=O)N(c2ccc(Cl)c(Cl)c2)C1=O` (centres undefined), the GI50 in [17], in test [1], in [2], in [3], in test [18] and in [4] was > 100 µM (inactive) in each case. The GI50 in test [5], in test [6], in [7], in test [8], in test [9] and in test [10] was > 100 µM (inactive) each time. Further, the GI50 in test [11], in [13], in [14] and in test [16] was > 100 µM (inactive) throughout.

For the molecule `OCCN(CCO)c1ncnc2[nH]cnc12`, the GI50 in test [17] was > 100 µM (inactive); in [1] it was > 100 µM (inactive); in test [3], 60.8 µM (inactive); in test [18], > 100 µM (inactive); in test [4] it was > 100 µM (inactive); in [5] it was > 100 µM (inactive). Further, the GI50 was > 100 µM (inactive) in test [20]; > 100 µM (inactive) in test [6]; 68.5 µM (inactive) in [7]; > 100 µM (inactive) in test [8]; > 100 µM (inactive) in test [10]; > 100 µM (inactive) in test [11]. Besides, the GI50 in test [12], in [13], in [14], in [15], in [16] and in test [19] was > 100 µM (inactive) each time.

In the case of `COC(=O)CCc1ccc2c(c1)[C@H](C(=O)OC)[C@@H](c1ccc(O)cc1)O2`, the GI50 in test [17], in test [1], in test [3], in test [18], in test [4] and in test [5] was > 100 µM (inactive) throughout. Moreover, the GI50 was > 100 µM (inactive) in test [6]; > 100 µM (inactive) in test [7]; > 100 µM (inactive) in test [8]; 90.2 µM (inactive) in test [9]; > 100 µM (inactive) in test [10]; 21.5 µM (inactive) in test [11]. Moreover, the GI50 in [12] was 75.5 µM (inactive); in test [13] it was > 100 µM (inactive); in test [14], > 10 µM (inactive); in test [15] it was > 100 µM (inactive); in test [16] it was > 100 µM (inactive); in [19], 75.9 µM (inactive).

With `Cc1ccc(/C=C2\Cc3cccc(C)c3C2=O)c(C(=O)O)c1`, the GI50 is 17.3 µM (inactive) in test [17]; > 100 µM (inactive) in [1]; > 100 µM (inactive) in test [2]; > 100 µM (inactive) in [3]; 97.7 µM (inactive) in test [18]; 39.1 µM (inactive) in test [4]. Also, the GI50 in test [5] is 64.4 µM (inactive); in test [20], 29.3 µM (inactive); in [6], 99.5 µM (inactive); in [7] it was > 100 µM (inactive); in [8], 74.3 µM (inactive); in test [9], 85.7 µM (inactive). The GI50 is > 100 µM (inactive) in test [10]; 72.9 µM (inactive) in test [11]; 36.3 µM (inactive) in [12]; > 100 µM (inactive) in test [14]; > 100 µM (inactive) in test [15]; 22.3 µM (inactive) in [19].

For `CC1(C)Oc2ccc3c(=O)cc(-c4ccc(F)cc4)oc3c2C1C(=O)O` (centres undefined), the GI50 in test [3], in test [18], in [4], in test [20], in [6] and in test [7] was > 100 µM (inactive) throughout. Also, the GI50 in test [8], in test [11], in test [13], in test [14], in [15] and in [16] was > 100 µM (inactive) each time. In addition, the GI50 in test [19] was > 100 µM (inactive).

For `CO[C@@]12[C@H](COC(N)=O)C3=C(C(=O)C(C)=C(N)C3=O)N1C[C@@H]1N[C@@H]12` [MITOMYCIN], the GI50 in test [17] was 3.49 µM (inactive); in [1], 0.485 µM (active); in test [3] it was 1.36 µM (inactive); in test [18], 1.11 µM (active); in test [4], 0.614 µM (active); in [20] it was 2.01 µM (inactive). Besides, the GI50 in test [6] is 2.24 µM (inactive); in test [7], 4.62 µM (inactive); in test [9] it was 0.204 µM (active); in test [11] it was 0.701 µM (active); in test [12], 2.4 µM (inactive); in [15], 0.796 µM (active). Also, the GI50 in test [16] was 1.02 µM (active); in test [19], 0.667 µM (active).

In the case of `CC(C)C1=CC23CCC4C(C)(C(=O)O)CCCC4(C)C2CC1C1C(=O)N(CCCCCCN2C(=O)C4C5CC6C7(C)CCCC(C)(C(=O)O)C7CCC6(C=C5C(C)C)C4C2=O)C(=O)C13` (centres undefined), the GI50 in [17] is 21.7 µM (inactive); in [1] it was 15.9 µM (inactive); in test [3], 22.4 µM (inactive); in [18] it was 9.2 µM (inactive); in test [4], 12.7 µM (inactive); in test [20], 14.2 µM (inactive). In addition, the GI50 in test [6] is 5.9 µM (inactive); in test [7], 7.4 µM (inactive); in [8], 9.31 µM (inactive); in [9], 13.5 µM (inactive); in test [10] it was 10.5 µM (inactive); in [11], 8.51 µM (inactive). The GI50 was 13.7 µM (inactive) in test [12]; 4.54 µM (inactive) in test [13]; > 10 µM (inactive) in test [14]; 16.7 µM (inactive) in [15]; 12 µM (inactive) in [19].

On to `Cc1ccc(SCC(CF)OC(C)n2cnc3c(O)nc(N)nc32)cc1` (centres undefined), for which the GI50 in test [17], in [1], in test [2], in test [3], in test [18] and in test [4] was > 100 µM (inactive) throughout. Besides, the GI50 in [5] is > 100 µM (inactive); in test [6], > 100 µM (inactive); in [8], > 100 µM (inactive); in [9], 41.1 µM (inactive); in [10], > 100 µM (inactive); in [11], > 100 µM (inactive). Also, the GI50 was > 100 µM (inactive) in [12]; 63.8 µM (inactive) in test [13]; > 100 µM (inactive) in [14]; > 100 µM (inactive) in [15]; > 100 µM (inactive) in [16]; > 100 µM (inactive) in [19].

For `C1=CN2C[n+]3ccc4ccccc4c3N=C2c2ccccc21`, the GI50 in test [17] is 2.04 µM (inactive); in [1], 4.02 µM (inactive); in [3], 16.1 µM (inactive); in test [18], 4.59 µM (inactive); in test [6] it was 8.2 µM (inactive); in [7], 7.62 µM (inactive). For the same molecule, the GI50 was 1.75 µM (inactive) in test [8]; 2.52 µM (inactive) in [9]; 2.11 µM (inactive) in [10]; 2.82 µM (inactive) in test [11]; 2.32 µM (inactive) in test [12]; 2.19 µM (inactive) in test [13]. Also, the GI50 in [14] is 2.88 µM (inactive); in test [15], 0.632 µM (active); in [16], 12.2 µM (inactive); in test [19] it was 0.622 µM (active).
